{"source": "paper PMC11448502", "about": "“Cryo-EM structures of the human P2X1 receptor reveal subtype-specific architecture and antagonism by supramolecular ligand-binding” (Nature Communications, 2024)", "assay_in_all_cases": "NF449 inhibition dose response (IC50), TEVC in oocytes", "assay_type_in_all_cases": "cell-based", "key": {"[1]": {"target": "T1, hP2X1 K309A (Homo sapiens, UniProt P51575, K309A)", "T1 construct": "hP2X1 mRNA that was made from linearized full-length wild-type or mutant pcDNA 3.1x; expressed in transfected cells; host or cells: Xenopus laevis oocytes (mRNA injection)", "T1 sequence (P51575 1-399 K309A)": "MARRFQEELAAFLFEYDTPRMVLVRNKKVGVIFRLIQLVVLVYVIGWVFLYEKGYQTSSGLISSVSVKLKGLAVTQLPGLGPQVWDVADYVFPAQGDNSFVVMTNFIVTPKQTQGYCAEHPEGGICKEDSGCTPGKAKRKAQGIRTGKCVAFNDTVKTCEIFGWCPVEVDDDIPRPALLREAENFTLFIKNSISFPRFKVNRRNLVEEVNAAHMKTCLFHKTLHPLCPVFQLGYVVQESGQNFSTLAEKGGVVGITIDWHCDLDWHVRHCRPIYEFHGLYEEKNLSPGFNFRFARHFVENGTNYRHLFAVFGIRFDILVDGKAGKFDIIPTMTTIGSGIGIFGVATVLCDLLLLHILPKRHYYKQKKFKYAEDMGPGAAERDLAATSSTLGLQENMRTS", "conditions": "for Normalized Current: hP2X1 K309A", "protocol": "(§1) Oocytes were purchased defolliculated from Ecocyte Bioscience in Barth’s Solution (88 mM NaCl, 1 mM KCl, 0.82 mM MgSO4, 0.33 mM Ca(NO3)2, 0.41 mM CaCl2, 2.4 mM NaHCO3, 5 mM Tris-HCl) supplemented with penicillin (100 U/mL) and streptomycin (100 µg/mL). Xenopus laevis oocytes were then injected with 50 nL of 100 ng/μL hP2X1 mRNA that was made from linearized full-length wild-type or mutant pcDNA 3.1x according to the protocol provided in the mMessage mMachine kit (Invitrogen). Injected oocytes were allowed to express for ~20 hours at 18 °C before recording was performed.\n(§2) Data acquisition was performed using the Oocyte Clamp OC-725C amplifier and pClamp 8.2 software. Buffers were applied using a gravity fed RSC-200 Rapid Solution Changer that flows at ~5 mL/min. All experiments use Sutter filamented glass 10 cm in length with an inner diameter of 0.69 mm and an outer diameter of 1.2 mm to impale oocytes and clamp the holding voltage at −60 mV. Experiments were recorded in buffer containing 10 mM HEPES (pH 7.4), 140 mM NaCl, 5 mM KCl, 2 mM CaCl2, 2 mM MgCl2, and 10 mM glucose.\n(§3) To test a dilution series of an antagonist at discrete concentrations, 10 µM ATP (2 mM ATP for K309A only) was first applied to evoke an initial maximum current. The oocyte was then washed with buffer for one minute, followed by one minute application of an antagonist test-concentration, and concluded by co-application of the same test concentration with 10 µM ATP (2 mM ATP for K309A). The antagonized signal was then normalized against the initial ATP excitatory signal. Each test concentration was performed in triplicate across different oocytes. The data was then fit to a nonlinear regression named “[inhibitor] vs. response – Variable slope (four parameters)” in Prism 9 to produce a sigmoidal curve and afford an IC50 value. Each singular condition was used to generate an average which is reported plus or minus its standard deviation between three discrete trials."}, "[2]": {"target": "T2, hP2X1 N184A (Homo sapiens, UniProt P51575, N184A)", "T2 construct": "hP2X1 mRNA that was made from linearized full-length wild-type or mutant pcDNA 3.1x; expressed in transfected cells; host or cells: Xenopus laevis oocytes (mRNA injection)", "T2 sequence (P51575 1-399 N184A)": "T1 sequence (P51575 1-399 K309A) with N184A, A309K", "conditions": "for Normalized Current: hP2X1 N184A", "protocol": "as §1, §2, §3"}, "[3]": {"target": "T3, hP2X1 K136A/R139A (Homo sapiens, UniProt P51575, K136A/R139A)", "T3 construct": "hP2X1 mRNA that was made from linearized full-length wild-type or mutant pcDNA 3.1x; expressed in transfected cells; host or cells: Xenopus laevis oocytes (mRNA injection)", "T3 sequence (P51575 1-399 K136A/R139A)": "T1 sequence (P51575 1-399 K309A) with K136A, R139A, A309K", "conditions": "for Normalized Current: hP2X1 K136A/R139A", "protocol": "as §1, §2, §3"}, "[4]": {"target": "T4, hP2X1 R139A (Homo sapiens, UniProt P51575, R139A)", "T4 construct": "hP2X1 mRNA that was made from linearized full-length wild-type or mutant pcDNA 3.1x; expressed in transfected cells; host or cells: Xenopus laevis oocytes (mRNA injection)", "T4 sequence (P51575 1-399 R139A)": "T1 sequence (P51575 1-399 K309A) with R139A, A309K", "protocol": "as §1, §2, §3"}}, "note": "Numbering of substitutions follows the chain as printed. “And” between values parts separate entries of the source, which are not always exact repeats. Equal entries are not always repeated.", "data": [{"smiles": "O=C(Nc1cc(C(=O)Nc2ccc(S(=O)(=O)O)cc2S(=O)(=O)O)cc(C(=O)Nc2ccc(S(=O)(=O)O)cc2S(=O)(=O)O)c1)Nc1cc(C(=O)Nc2ccc(S(=O)(=O)O)cc2S(=O)(=O)O)cc(C(=O)Nc2ccc(S(=O)(=O)O)cc2S(=O)(=O)O)c1", "note": "[NF449, 4,4’,4”,4’’’-(carbonylbis(imino-5,1,3-benzenetriylbis(carbonylimino)))tetrakis-benzene-1,3-disulfonic acid]", "values": [{"measurement": "reduction in inhibitory potency (IC50) of NF449", "setting": "[1]; hP2X1 K309A vs wild-type", "value": 5, "unit": "fold"}, {"measurement": "Normalized Current", "setting": "[1]; [NF449] 1.600E-09 M", "value": "0.804 and 0.6904 and 0.632"}, {"measurement": "Normalized Current", "setting": "[1]; [NF449] 3.200E-10 M", "value": "1.021 and 0.9283 and 0.8888"}, {"measurement": "Normalized Current", "setting": "[1]; [NF449] 6.400E-11 M", "value": "1.062 and 1.037 and 0.9009"}, {"measurement": "Normalized Current", "setting": "[1]; [NF449] 8.000E-09 M", "value": "0.3679 and 0.3618 and 0.2758"}, {"measurement": "reduction in inhibitory potency of NF449", "setting": "[2]; hP2X1 N184A vs wild-type", "value": "~ 6 fold"}, {"measurement": "Normalized Current", "setting": "[2]; [NF449] 1.280E-11 M", "value": "1.058 and 0.9967 and 0.9456"}, {"measurement": "Normalized Current", "setting": "[2]; [NF449] 1.600E-09 M", "value": "0.7543 and 0.7296"}, {"measurement": "Normalized Current", "setting": "[2]; [NF449] 3.200E-10 M", "value": "0.9687 and 0.7936 and 0.7686"}, {"measurement": "Normalized Current", "setting": "[2]; [NF449] 4.000E-08 M", "value": "0.04235 and 0.03835 and 0.03234"}, {"measurement": "Normalized Current", "setting": "[2]; [NF449] 6.400E-11 M", "value": "0.9352 and 0.9156 and 0.8436"}, {"measurement": "Normalized Current", "setting": "[2]; [NF449] 8.000E-09 M", "value": "0.4048 and 0.3885 and 0.3164"}, {"measurement": "decrease in inhibitory potency of NF449", "setting": "[3]; hP2X1 K136A/R139A vs wild-type", "value": 990, "unit": "fold"}, {"measurement": "Normalized Current", "setting": "[3]; [NF449] 1.000E-06 M", "value": "0.4929 and 0.4694 and 0.363"}, {"measurement": "Normalized Current", "setting": "[3]; [NF449] 2.000E-07 M", "value": "0.8009 and 0.7536 and 0.7046"}, {"measurement": "Normalized Current", "setting": "[3]; [NF449] 4.000E-08 M", "value": "1.069 and 1.018 and 0.8793"}, {"measurement": "Normalized Current", "setting": "[3]; [NF449] 6.246E-06 M", "value": "0.148 and 0.1446 and 0.1086"}, {"measurement": "Normalized Current", "setting": "[3]; [NF449] 8.000E-09 M", "value": "1.104 and 1.01 and 0.886"}, {"measurement": "Normalized Current", "setting": "[4]; [NF449] 1.600E-09 M", "value": "0.9525 and 0.8503 and 0.8408"}, {"measurement": "Normalized Current", "setting": "[4]; [NF449] 2.000E-07 M", "value": "0.2675 and 0.1529"}, {"measurement": "Normalized Current", "setting": "[4]; [NF449] 3.200E-10 M", "value": "1.089 and 0.9841 and 0.9268"}, {"measurement": "Normalized Current", "setting": "[4]; [NF449] 4.000E-08 M", "value": "0.6975 and 0.6688 and 0.5159"}, {"measurement": "Normalized Current", "setting": "[4]; [NF449] 5.000E-06 M", "value": 0.000000}, {"measurement": "Normalized Current", "setting": "[4]; [NF449] 8.000E-09 M", "value": "0.8121 and 0.8025 and 0.7834"}]}]}
